System: T cells present in the PBL's
Format: cell-based, human
Conditions: anti-CD1b antibody, TB patients

In the case of mycolic acid, the “CD1b restriction of antigen-specific response” value was “CD1b restricted”.
